Experimental data from patent US5444063A, “Enantiomerically pure β-D-dioxolane nucleosides with selective anti-Hepatitis B virus activity” (priority 1992, dated 1995).
“And” between values parts separate entries of the source, which are not always exact repeats. Equal entries are not always repeated. Where two headings read alike, the source gives them in different places.

What was measured:
[1] = Toxicity analysis of test compounds in 2.2.15 cells (neutral red dye uptake); type: cell-based; conditions: human
Experimental: Toxicity analyses were performed in order to assess whether any observed antiviral effects are due to a general effect on cell viability. The method used was based on the uptake of neutral red dye, a standard and widely used assay for cell viability in a variety of virus-host systems, including HSV (herpes simplex virus) and HIV. Details of the procedure are provided in the toxicity table legends.
The test compounds were used in the form of 40 mM stock solutions in DMSO (frozen on dry ice). Daily aliquots of the test samples were made and frozen at -20° C. so that each individual aliquot would be subjected to a single freeze-thaw cycle. The daily test aliquots were thawed, suspended into culture medium at room temperature and immediately added to the cell cultures° The compounds were tested at 0.0 and 1 μM for antiviral activity. The compounds were tested for toxicity at concentrations up to 300 μM.
Toxicity analyses were performed in 96-well flat bottomed tissue culture plates. Cells for the toxicity analyses were cultured and treated with test compounds with the same schedule as used for the antiviral evaluations. Each compound was tested at 4 concentrations, each in triplicate cultures. Uptake of neutral red dye was used to determine the relative level of toxicity. The absorbance of internalized dye at […] (A510) was used for the quantitative analysis. Values are presented as a percentage of the average A510 values (±standard deviations) in 9 separate cultures of untreated cells maintained on the same 96-well plate as the test compounds.

HBV [2] = conditions: relative to average levels in untreated cells; Korba and Gerin 1992; read-out: Concentration at which a 90% depression of HBV RI is typically observed; cited from earlier work
2.2.15 cells = conditions: versus untreated cultures; Korba and Gerin 1992; read-out: Concentration at which a 2-fold reduction in dye uptake is typically observed; cited from earlier work
[3] = Toxicity analysis of test compounds in 2.2.15 cells (neutral red dye uptake); type: cell-based; conditions: human; remark: listed apart in the source
HBV [4] = assay: Effect of nucleosides on HBV production in 2.2.15 cells (HBV virion DNA and intracellular HBV DNA); type: cell-based, Hepatitis B virus; conditions: for inhibition at 10 µM: Hepatitis B virus
Experimental: The ability of β-D-dioxolane-nucleosides to inhibit HBV can be measured by various experimental techniques. The assay used herein to evaluate the ability of the disclosed compounds to inhibit the replication of HBV is described in detail in Korba and Gerin, Antiviral Res. 19:55-70 (1992). […] The other compounds disclosed herein are evaluated similarly.
The antiviral evaluations were performed on two separate passages of cells, two cultures per passage (4 cultures total). All wells, in all plates, were seeded at the same density and at the same time.
Due to the inherent variations in the levels of both intracellular and extracellular HBV DNA, only depressions greater than 3.0-fold (for HBV virion DNA) or 2.5-fold (for HBV DNA replication intermediates) from the average levels for these HBV DNA forms in untreated cells are generally considered to be statistically significant [P<0.05] (Korba and Gerin, Antiviral Res. 19: 55-70, 1992). The levels of integrated HBV DNA in each cellular DNA preparation (which remain constant on a per cell basis in these experiments) were used to calculate the levels of intracellular HBV DNA forms, thereby eliminating technical variations inherent in the blot hybridization assays.
The test compounds were used in the form of 40 mM stock solutions in DMSO (frozen on dry ice). Daily aliquots of the test samples were made and frozen at -20° C. so that each individual aliquot would be subjected to a single freeze-thaw cycle. […] The compounds were tested for toxicity at concentrations up to 300 μM.

[5] = 10 μM, individual culture, listed as DDC

Nc1ccn([C@H]2CC[C@@H](CO)O2)c(=O)n1 [2',3'-ddC, 2',3'-dideoxycytosine, reference compound]
viability at 30 µM ([1]; 30 μM): 101 ± 1%
viability at 100 µM ([1]; 100 μM): 97 ± 2%
viability at 300 µM ([1]; 300 μM): 44 ± 1%
EC90 (HBV [2]): 9 to 12 µM
CC50 (2.2.15 cells): 150 to 190 µM
viability at 1000 µM [3]: 5 ± 1%
HBV virion DNA, day 0 (HBV [4]; [5]): 66 pg/ml of cultured medium and 58 pg/ml of cultured medium and 67 pg/ml of cultured medium and 51 pg/ml of cultured medium
HBV virion DNA, day 3 (HBV [4]; [5]): 50 pg/ml of cultured medium and 52 pg/ml of cultured medium and 51 pg/ml of cultured medium and 48 pg/ml of cultured medium
HBV virion DNA, day 6 (HBV [4]; [5]): 20 pg/ml of cultured medium and 13 pg/ml of cultured medium and 19 pg/ml of cultured medium and 17 pg/ml of cultured medium
HBV virion DNA, day 9 (HBV [4]; [5]): 2 pg/ml of cultured medium and 3 pg/ml of cultured medium
Intracellular HBV DNA on Day 10, Mono (episomal 3.2kB HBV genomes) (HBV [4]; [5]): 0.9 pg/μM of cellular DNA and 1.0 pg/μM of cellular DNA and 1.4 pg/μM of cellular DNA and 1.1 pg/μM of cellular DNA
Intracellular HBV DNA on Day 10, RI (HBV DNA replication intermediates) (HBV [4]; [5]): 6 pg/μM of cellular DNA and 4 pg/μM of cellular DNA and 5 pg/μM of cellular DNA and 7 pg/μM of cellular DNA
HBV virion DNA, day 0, mean (HBV [4]; 10 μM, mean of 4 cultures): 60.50 pg/ml of cultured medium
HBV virion DNA, day 3, mean (HBV [4]; 10 μM, mean of 4 cultures): 50.25 pg/ml of cultured medium
HBV virion DNA, day 6, mean (HBV [4]; 10 μM, mean of 4 cultures): 17.25 pg/ml of cultured medium
HBV virion DNA, day 9, mean (HBV [4]; 10 μM, mean of 4 cultures): 2.25 pg/ml of cultured medium
Intracellular HBV DNA on Day 10, Mono, mean (HBV [4]; 10 μM, mean of 4 cultures): 1.10 pg/μM of cellular DNA
Intracellular HBV DNA on Day 10, RI, mean (HBV [4]; 10 μM, mean of 4 cultures): 5.50 pg/μM of cellular DNA
inhibition at 10 µM (HBV [4]; 0 h, read-out: % inhibition, HBV virion DNA, day 0): 3.97%
inhibition at 10 µM (HBV [4]; 72 h, read-out: % inhibition, HBV virion DNA, day 3): 22.4%
inhibition at 10 µM (HBV [4]; 144 h, read-out: % inhibition, HBV virion DNA, day 6): 77.5%
inhibition at 10 µM (HBV [4]; 216 h, read-out: % inhibition, HBV virion DNA, day 9): 97%
inhibition at 10 µM (HBV [4]; 240 h, read-out: % inhibition, intracellular HBV DNA Mono, Day 10): 56.4%
inhibition at 10 µM (HBV [4]; 240 h, read-out: % inhibition, intracellular HBV DNA RI, Day 10): 92.5%
Depression of HBV DNA replication (HBV [4]; positive treatment control, at the concentration used): significant depressions of HBV DNA replication
